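All cell lines were grown in 96-well plates and treated with compound for 48 hours. The concentration for 50% growth inhibition is given as GI50. TGI: concentration producing complete growth inhibition.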
What was measured:
Assay in all cases: NCI tumour cell line growth inhibition, 48 h
HCC-2998 colon = test system: HCC-2998 colon
MCF7 breast = test system: MCF7 breast
SK-OV-3 ovarian = test system: SK-OV-3 ovarian
T-47D breast = test system: T-47D breast
NCI-H522 lung = test system: NCI-H522 lung
A498 renal = test system: A498 renal
SK-MEL-5 melanoma = test system: SK-MEL-5 melanoma
MALME-3M melanoma = test system: MALME-3M melanoma
OVCAR-8 ovarian = test system: OVCAR-8 ovarian
IGROV1 ovarian = test system: IGROV1 ovarian
M14 melanoma = test system: M14 melanoma
UACC-62 melanoma = test system: UACC-62 melanoma
SF-539 CNS = test system: SF-539 CNS
OVCAR-3 ovarian = test system: OVCAR-3 ovarian
SR leukemia = test system: SR leukemia
A549 NSCLC = test system: A549 NSCLC
NCI-H460 lung = test system: NCI-H460 lung
SW-620 colon = test system: SW-620 colon
ACHN renal = test system: ACHN renal
MOLT-4 leukemia = test system: MOLT-4 leukemia
RXF 393 renal = test system: RXF 393 renal
OVCAR-4 ovarian = test system: OVCAR-4 ovarian
TK-10 renal = test system: TK-10 renal
MDA-MB-231 breast = test system: MDA-MB-231 breast
CCRF-CEM leukemia = test system: CCRF-CEM leukemia
NCI/ADR-RES ovarian = test system: NCI/ADR-RES ovarian
DU-145 prostate = test system: DU-145 prostate
LOX IMVI melanoma = test system: LOX IMVI melanoma
RPMI-8226 leukemia = test system: RPMI-8226 leukemia

Question: Which TGI (HCC-2998 colon) does the source give for `O=C(Nc1cccc(-n2cc(-c3ccncc3)c(-c3ccc(Cl)c(O)c3)n2)c1)Nc1ccc(Cl)c(C(F)(F)F)c1` here?
Answer: 6230 nM

Question: And the GI50 (MCF7 breast)?
Answer: 663 nM

Question: And the TGI (MCF7 breast)?
Answer: 32500 nM

Question: What about the GI50 (SK-OV-3 ovarian) of the same compound?
Answer: 1270 nM

Question: And the TGI (SK-OV-3 ovarian)?
Answer: 9730 nM

Question: And the GI50 (T-47D breast)?
Answer: 911 nM

Question: What about the TGI (T-47D breast) of the same compound?
Answer: 9010 nM

Question: And the GI50 (NCI-H522 lung)?
Answer: 643 nM

Question: And the TGI (NCI-H522 lung)?
Answer: 2190 nM

Question: And the GI50 (A498 renal)?
Answer: 1240 nM

Question: What about the TGI (A498 renal) of the same compound?
Answer: 7930 nM

Question: What about the GI50 (SK-MEL-5 melanoma) of the same compound?
Answer: 528 nM

Question: What about the TGI (SK-MEL-5 melanoma) of the same compound?
Answer: 1040 nM

Question: And the GI50 (MALME-3M melanoma)?
Answer: 557 nM

Question: What about the TGI (MALME-3M melanoma) of the same compound?
Answer: 1580 nM

Question: What about the GI50 (OVCAR-8 ovarian) of the same compound?
Answer: 759 nM

Question: And the TGI (OVCAR-8 ovarian)?
Answer: 2280 nM

Question: And the GI50 (IGROV1 ovarian)?
Answer: 770 nM

Question: And the TGI (IGROV1 ovarian)?
Answer: 2430 nM

Question: What about the GI50 (M14 melanoma) of the same compound?
Answer: 805 nM

Question: And the TGI (M14 melanoma)?
Answer: 2300 nM

Question: And the GI50 (UACC-62 melanoma)?
Answer: 609 nM

Question: And the TGI (UACC-62 melanoma)?
Answer: 1470 nM

Question: What about the GI50 (SF-539 CNS) of the same compound?
Answer: 730 nM

Question: What about the TGI (SF-539 CNS) of the same compound?
Answer: 2200 nM

Question: What about the GI50 (OVCAR-3 ovarian) of the same compound?
Answer: 658 nM

Question: What about the TGI (OVCAR-3 ovarian) of the same compound?
Answer: 1950 nM

Question: And the GI50 (SR leukemia)?
Answer: 663 nM

Question: And the TGI (SR leukemia)?
Answer: 2050 nM

Question: What about the GI50 (A549 NSCLC) of the same compound?
Answer: 914 nM

Question: And the TGI (A549 NSCLC)?
Answer: 4070 nM

Question: What about the GI50 (NCI-H460 lung) of the same compound?
Answer: 963 nM

Question: And the TGI (NCI-H460 lung)?
Answer: 3690 nM

Question: What about the GI50 (SW-620 colon) of the same compound?
Answer: 1070 nM

Question: What about the TGI (SW-620 colon) of the same compound?
Answer: 3770 nM

Question: And the GI50 (ACHN renal)?
Answer: 890 nM

Question: What about the TGI (ACHN renal) of the same compound?
Answer: 32500 nM

Question: What about the GI50 (MOLT-4 leukemia) of the same compound?
Answer: 777 nM

Question: What about the TGI (MOLT-4 leukemia) of the same compound?
Answer: 2930 nM

Question: And the GI50 (RXF 393 renal)?
Answer: 557 nM

Question: And the TGI (RXF 393 renal)?
Answer: 1670 nM

Question: What about the GI50 (OVCAR-4 ovarian) of the same compound?
Answer: 1120 nM

Question: And the TGI (OVCAR-4 ovarian)?
Answer: 27200 nM

Question: What about the GI50 (TK-10 renal) of the same compound?
Answer: 1330 nM

Question: And the TGI (TK-10 renal)?
Answer: 7520 nM

Question: What about the GI50 (MDA-MB-231 breast) of the same compound?
Answer: 538 nM

Question: And the TGI (MDA-MB-231 breast)?
Answer: 1480 nM

Question: What about the GI50 (CCRF-CEM leukemia) of the same compound?
Answer: 719 nM

Question: And the TGI (CCRF-CEM leukemia)?
Answer: 2700 nM

Question: And the GI50 (NCI/ADR-RES ovarian)?
Answer: 1010 nM

Question: And the TGI (NCI/ADR-RES ovarian)?
Answer: 9460 nM

Question: What about the GI50 (DU-145 prostate) of the same compound?
Answer: 1160 nM

Question: What about the TGI (DU-145 prostate) of the same compound?
Answer: 4510 nM

Question: And the GI50 (LOX IMVI melanoma)?
Answer: 554 nM

Question: What about the TGI (LOX IMVI melanoma) of the same compound?
Answer: 1150 nM

Question: And the GI50 (RPMI-8226 leukemia)?
Answer: 487 nM

Question: And the TGI (RPMI-8226 leukemia)?
Answer: 1670 nM

Reference: PubChem BioAssay (NCI)
